Assay results: patent US4299915A (priority 1977, dated 1981)
Read-outs that look alike come from different tables or passages of the source.

How the values were obtained:
[1] = system: S. typhimurium strain TM35
[2] = system: 8AG^R mutant fraction of S. typhimurium cultures
[3] = system: 5-methyltryptophan-sensitive bacteria; conditions: cited from earlier work
8AG^R mutants = experiment: Uptake of tagged 8AG by 8AG^R mutant clones; format: cell-based, S. typhimurium
wild-type control = format: cell-based, S. typhimurium
8AG^R clones = format: cell-based, S. typhimurium; conditions: for plating efficiency, 8AG w/cells: 50 ug/ml 8AG plus 10^6 8AG^S cells; for plating efficiency, 8AG: 50 ug/ml 8AG, control 1.00
[4] = system: mixed population of 8AG^S and 8AG^R cells; experiment: Reconstruction experiment 2: mixed 8AG^R/8AG^S population exposed to the mutation assay protocol; conditions: 2 hr

COc1ccc2nc3cc(Cl)ccc3c(NCCCNCCCl)c2c1 [ICR-191]
induced mutant fractions (M.F.) [1]: significantly higher than background levels
8AG^R mutant fraction when cultures are allowed to grow before plating [2]: drops significantly and then stabilizes at a constant level

Cc1ccc2[nH]cc(C[C@H](N)C(=O)O)c2c1 [5-methyltryptophan]
growth inhibition of 5-methyltryptophan-sensitive bacteria [3]: not completely inhibited
effect of varying the concentration on observed mutant fraction ([3]; varying concentration): changes the observed mutant fraction

Nc1nc2nn[nH]c2c(=O)[nH]1 [8AG, 8-azaguanine]
activity (8AG incorporation), mutants with no detectable activity (8AG^R mutants; 9 of the mutants tested): < 0.04%
8AG Inc. (% wild-type) (8AG^R mutants; mutant 9AA-1 (induced by 9AA)): < 0.04 % wild-type
8AG Inc. (% wild-type) (8AG^R mutants; mutant 9AA-2 (induced by 9AA)): < 0.04 % wild-type
8AG Inc. (% wild-type) (8AG^R mutants; mutant 9AA-3 (induced by 9AA)): < 0.04 % wild-type
8AG Inc. (% wild-type) (8AG^R mutants; mutant 9AA-4 (induced by 9AA)): < 0.04 % wild-type
8AG Inc. (% wild-type) (8AG^R mutants; mutant 9AA-5 (induced by 9AA)): < 0.04 % wild-type
8AG Inc. (% wild-type) (8AG^R mutants; mutant BPL-1 (induced by βPL)): 0.1 % wild-type
8AG Inc. (% wild-type) (8AG^R mutants; mutant BPL-2 (induced by βPL)): 2.5 % wild-type
8AG Inc. (% wild-type) (8AG^R mutants; mutant BPL-3 (induced by βPL)): 7.1 % wild-type
8AG Inc. (% wild-type) (8AG^R mutants; mutant BPL-4 (induced by βPL)): 1.8 % wild-type
8AG Inc. (% wild-type) (8AG^R mutants; mutant BPL-5 (induced by βPL)): 1.2 % wild-type
8AG Inc. (% wild-type) (8AG^R mutants; mutant ICR-1 (induced by ICR191)): < 0.04 % wild-type
8AG Inc. (% wild-type) (8AG^R mutants; mutant ICR-2 (induced by ICR191)): < 0.04 % wild-type
8AG Inc. (% wild-type) (8AG^R mutants; mutant ICR-3 (induced by ICR191)): 0.80 % wild-type
8AG Inc. (% wild-type) (8AG^R mutants; mutant ICR-4 (induced by ICR191)): < 0.04 % wild-type
8AG Inc. (% wild-type) (8AG^R mutants; mutant ICR-5 (induced by ICR191)): 11.8 % wild-type
8AG Inc. (% wild-type) (8AG^R mutants; mutant NG-1 (induced by MNNG)): 0.04 % wild-type
8AG Inc. (% wild-type) (8AG^R mutants; mutant NG-2 (induced by MNNG)): 5.1 % wild-type
8AG Inc. (% wild-type) (8AG^R mutants; mutant NG-3 (induced by MNNG)): 2.2 % wild-type
8AG Inc. (% wild-type) (8AG^R mutants; mutant NG-4 (induced by MNNG)): 4.9 % wild-type
8AG Inc. (% wild-type) (8AG^R mutants; mutant NG-5 (induced by MNNG)): 3.2 % wild-type
8AG Inc. (% wild-type) (8AG^R mutants; mutant S-1 (spontaneous)): 2.4 % wild-type
8AG Inc. (% wild-type) (8AG^R mutants; mutant S-2 (spontaneous)): 1.7 % wild-type
8AG Inc. (% wild-type) (8AG^R mutants; mutant S-3 (spontaneous)): 18.3 % wild-type
8AG Inc. (% wild-type) (8AG^R mutants; mutant S-4 (spontaneous)): 5.9 % wild-type
8AG Inc. (% wild-type) (8AG^R mutants; mutant S-5 (spontaneous)): 19.5 % wild-type
8AG incorporation rate of the wild-type control (wild-type control): 5×10^-18 moles/cell-hr
Uptake in the control over time (wild-type control): linear through the 2 hr incubation
effect on plating efficiency, 8AG alone (8AG^R clones): no effect
effect on plating efficiency, 8AG with 8AG^S cells (8AG^R clones): did decrease plating efficiency slightly
plating efficiency, 8AG w/cells (8AG^R clones; clone S-1): 0.8 ± .07
plating efficiency, 8AG (8AG^R clones; clone S-1): 0.93 ± .05
plating efficiency, 8AG w/cells (8AG^R clones; clone S-2): 1.04 ± .03
plating efficiency, 8AG (8AG^R clones; clone S-2): 1.16 ± .03
plating efficiency, 8AG w/cells (8AG^R clones; clone S-3, * statistically less than control (p < .05)): 0.87 ± .08
plating efficiency, 8AG (8AG^R clones; clone S-3): 0.95 ± .03
plating efficiency, 8AG w/cells (8AG^R clones; clone S-4, * statistically less than control (p < .05)): 0.83 ± .03
plating efficiency, 8AG (8AG^R clones; clone S-4): 0.98 ± .01
plating efficiency, 8AG w/cells (8AG^R clones; clone S-5, * statistically less than control (p < .05)): 0.73 ± .08
plating efficiency, 8AG (8AG^R clones; clone S-5): 0.92 ± .01

O=C1CCO1 [βPL, β-propiolactone]
induced mutant fractions (M.F.) [1]: significantly higher than background levels
ratio of 8AG^R cells to 8AG^S cells in the treated population ([4]; 0, 0.16, and 1.60 mM): did not suffer significantly
survival of the mixed population ([4]; high concentration (0, 0.16 and 1.60 mM tested)): killed a significant portion of the mixed population

Nc1c2ccccc2nc2ccccc12 [9AA, 9-aminoacridine]
induced mutant fractions (M.F.) [1]: significantly higher than background levels
